In PubChem BioAssay (NCI):
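The compound was tested at five concentrations on cells cultured in 96-well plates, with a 48-hour exposure period. At the TGI there is no net growth.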

Key:
Assay in all cases: inhibition of tumour cell growth, NCI panel, 48 h
ACHN renal = system: ACHN renal
CAKI-1 renal = system: CAKI-1 renal
K-562 leukemia = system: K-562 leukemia
MCF7 breast = system: MCF7 breast
NCI-H226 lung = system: NCI-H226 lung
RPMI-8226 leukemia = system: RPMI-8226 leukemia
SF-268 CNS = system: SF-268 CNS
SK-MEL-5 melanoma = system: SK-MEL-5 melanoma
SN12C renal = system: SN12C renal
SR leukemia = system: SR leukemia
UACC-257 melanoma = system: UACC-257 melanoma

SMILES	TGI (ACHN renal) [µM]	TGI (CAKI-1 renal) [µM]	TGI (K-562 leukemia) [µM]	TGI (MCF7 breast) [µM]	TGI (NCI-H226 lung) [µM]	TGI (RPMI-8226 leukemia) [µM]	TGI (SF-268 CNS) [µM]	TGI (SK-MEL-5 melanoma) [µM]	TGI (SN12C renal) [µM]	TGI (SR leukemia) [µM]	TGI (UACC-257 melanoma) [µM]
C=C(C)CCC1CCCCC(CN(C)C)C1=O (centres undefined)	> 100	> 100	> 100	> 100	> 100	> 100	> 100	> 100	> 100	> 100	> 100
CC1=C(C(=O)OCCO[N+](=O)[O-])C(c2ccccc2C(F)(F)F)C(C(=O)OC(C)C)=C(C)N1 (centres undefined)	> 100	52.3	> 100	75.1	27.4	> 100	47.9	22.1	36.8	> 100	25.4
COC1=CC(=O)C(O)=C(C[C@@]2(C)[C@@H]3CCC[C@H](COC(=O)CCCCCNC(=O)OC(C)(C)C)[C@@]3(C)CC[C@@H]2C)C1=O	> 10	> 10	> 10	> 10	> 10	> 10	> 10	> 10	> 10	> 10	> 10
CC1=C/C(=N/N2C(=O)/C(=C/c3ccc(Cl)cc3)N=C2c2ccccc2)CC(C)(C)C1	> 100	> 100	> 100	> 100	> 100	> 100	> 100	> 100	> 100	> 100	> 100
CCC(=O)OCc1ccc2oc(=O)c(C(=O)Oc3cncc(Cl)c3)cc2c1	> 100	> 100	77.9	> 100	> 100	> 100	> 100	> 100	> 100	> 100	> 100
C=C1C(=O)OC2/C=C(\C)C(O)CC(O)C(C)(O)CC(OC(=O)/C(C)=C/C)C12 (centres undefined)	> 100	> 100	> 100	> 100	> 100	74.2	> 100	> 100	> 100	> 55.9	> 100
C=CCN1C(=O)/C(=C/c2ccc(C)cc2)N=C1SC/C=C/C	> 100	> 100	89.4	> 100	> 100	36.6	> 100	44.6	> 100	42.4	> 100
c1ccc2c(c1)CCc1c-2n(CCN2CCCCC2)c2ccccc12	39.3	52.3	30.9	30.9	25.1	40.3	49.5	12.9	36.9	32.3	32.5
O=C(O)c1c(-c2c3ccc(=O)cc-3oc3cc(O)ccc23)cc2ccccc2c1-c1ccccc1	> 100	> 100	> 46.4	> 100	> 100	> 100	> 100	> 100	> 100	> 100	> 100
CCCn1cnc2c(NN=O)ncnc21	> 100	> 100	> 100	> 100	> 100	> 100	> 100	> 100		> 100	
O=C(CCCCCCCCC(=O)NN1C(=O)/C(=C\c2ccc(O)c(O)c2)SC1c1c(O)ccc2ccccc12)NN1C(=O)C(=Cc2ccc(O)c(O)c2)SC1c1c(O)ccc2ccccc12 (centres undefined)	> 100	> 100	> 60.8	> 100	> 100	21.1	> 100	19.4	> 87.4	> 30.8	> 92.7
O=c1c2cc(Br)ccc2oc2nc3n(c(=O)c12)CCCS3	> 100	> 100	> 100	> 100	> 100	> 100	> 100	> 100	> 100	> 100	> 100
CO/N=C1\CCC2(O)C3Cc4ccc(O)c5c4C2(CCN3CC2CC2)[C@H]1O5 (some centres undefined)	> 100	> 100	> 100	> 100	> 100	> 100	> 100	> 100	> 100	> 100	
Cc1ccc(C(=O)CC(Cl)=C(Cl)Cl)cc1	> 100	> 100	> 100	> 100	> 100	74.3	> 100	> 100		55.6	> 100
Cc1cccc2sc(NC(=O)c3cc([N+](=O)[O-])ccc3Cl)nc12	> 100	> 44.8	> 100	> 100	> 64.1	> 100	> 33.7	5.32	3.34	> 100	> 100
COC(=O)C(NC(=O)CNC(=O)CSc1nnc(COc2ccc(Cl)cc2)n1-c1ccccc1)C(C)C (centres undefined)	31.8	28.2	> 100	30.4	38.3	46.7	42.7	30	35.9	52.3	34.6
C/C=C(/C)C(=O)O[C@@H]1c2c(C)coc2C[C@H]2CC[C@H](O)[C@H](C)[C@]21C	> 100	> 100	> 100	87.8	> 100	> 100	> 100	> 100	> 100	> 100	> 100
COc1ccc(-c2cc(-c3ccc(Nc4ccnc5cc(C(F)(F)F)ccc45)cc3)[nH]c(=O)c2C#N)c2ccccc12	> 81.5	> 100	> 100	> 100	> 100	> 100	> 100	> 100	> 100	> 48.9	> 100
